Data reported in patent US20230312529A1, “PYRIMIDINE SMALL-MOLECULE COMPOUND AND APPLICATION THEREOF” (WENZHOU MEDICAL UNIVERSITY, priority 2021, published 2023).

Tests used:
Assay in all cases: Caliper Mobility Shift kinase inhibition test
Type in all cases: biochemical
[1] = molecular target: PDGFRβ (Homo sapiens (Human), UniProt P09619); settings: for inhibition at 0.1 µM / inhibitory rate on PDGFR-β: 100 nM; for inhibition at 0.1 µM: read-out: inhibitory rate on PDGFR-β; for IC50: read-out: IC50 PDGFR-β
Sequence of PDGFRβ (P09619 33-1106): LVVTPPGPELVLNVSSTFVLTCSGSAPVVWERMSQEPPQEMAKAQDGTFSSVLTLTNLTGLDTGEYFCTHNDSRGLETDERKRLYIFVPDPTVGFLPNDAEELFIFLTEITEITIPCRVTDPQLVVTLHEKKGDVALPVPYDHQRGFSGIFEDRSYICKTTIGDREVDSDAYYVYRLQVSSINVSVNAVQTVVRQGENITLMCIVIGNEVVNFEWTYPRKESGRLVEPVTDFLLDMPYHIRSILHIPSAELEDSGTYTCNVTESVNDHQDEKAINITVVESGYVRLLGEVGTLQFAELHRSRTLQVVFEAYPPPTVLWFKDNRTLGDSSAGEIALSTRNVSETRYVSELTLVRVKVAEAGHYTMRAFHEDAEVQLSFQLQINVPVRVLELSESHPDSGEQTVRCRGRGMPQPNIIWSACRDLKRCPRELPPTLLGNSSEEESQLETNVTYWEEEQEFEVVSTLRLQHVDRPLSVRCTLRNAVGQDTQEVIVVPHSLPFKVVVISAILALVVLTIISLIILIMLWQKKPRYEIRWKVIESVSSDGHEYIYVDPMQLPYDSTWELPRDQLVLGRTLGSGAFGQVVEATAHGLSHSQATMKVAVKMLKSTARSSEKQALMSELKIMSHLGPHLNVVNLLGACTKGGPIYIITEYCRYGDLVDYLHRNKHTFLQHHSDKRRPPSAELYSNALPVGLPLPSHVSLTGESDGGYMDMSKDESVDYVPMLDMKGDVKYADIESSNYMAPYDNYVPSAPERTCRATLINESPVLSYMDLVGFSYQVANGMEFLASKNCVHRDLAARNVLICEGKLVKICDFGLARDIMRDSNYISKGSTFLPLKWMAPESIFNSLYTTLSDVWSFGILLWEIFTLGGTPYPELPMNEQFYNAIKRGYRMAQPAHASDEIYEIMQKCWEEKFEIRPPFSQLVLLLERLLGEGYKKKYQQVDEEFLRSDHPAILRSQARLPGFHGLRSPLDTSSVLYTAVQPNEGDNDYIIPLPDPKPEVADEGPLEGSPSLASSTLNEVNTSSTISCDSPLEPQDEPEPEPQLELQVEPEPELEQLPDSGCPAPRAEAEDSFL
Experimental: (§1) The method adopted in the test was Caliper Mobility Shift Assay, which was a detection platform based on the mobility detection technology of microfluidic chip technology. Test steps: 1.25× kinase reaction buffer (62.5 mmol/L HEPES, pH 7.5; 0.001875% Brij-35; 12.5 mmol/L MgCl2; 2.5 mM DTT) and kinase reaction stop solution (100 mmol/L HEPES, pH 7.5; 0.015% Brij-35; 0.2% Coating Reagent #3) were configured. […] Collected data was tested on Caliper to yield that inhibition ratio to kinase activity=(max−conversion)/(max−min)×100. “max” was DMSO control without adding compound, and “min” was low control. When IC50 was determined, each sample was provided with 10 dilutions, each with 2 multiple holes, and repeated for 3 times.
(§2) According to the above-mentioned method for measuring kinase inhibitory activity, the inhibitory activity of the active compounds on other multiple kinases was measured to characterize the kinase selectivity of active inhibitors.

[2] = molecular target: FLT3 (Homo sapiens (Human), UniProt P36888); settings: 100 nM; for inhibition at 0.1 µM: read-out: inhibitory rate on FLT3
Sequence of FLT3 (P36888 27-993): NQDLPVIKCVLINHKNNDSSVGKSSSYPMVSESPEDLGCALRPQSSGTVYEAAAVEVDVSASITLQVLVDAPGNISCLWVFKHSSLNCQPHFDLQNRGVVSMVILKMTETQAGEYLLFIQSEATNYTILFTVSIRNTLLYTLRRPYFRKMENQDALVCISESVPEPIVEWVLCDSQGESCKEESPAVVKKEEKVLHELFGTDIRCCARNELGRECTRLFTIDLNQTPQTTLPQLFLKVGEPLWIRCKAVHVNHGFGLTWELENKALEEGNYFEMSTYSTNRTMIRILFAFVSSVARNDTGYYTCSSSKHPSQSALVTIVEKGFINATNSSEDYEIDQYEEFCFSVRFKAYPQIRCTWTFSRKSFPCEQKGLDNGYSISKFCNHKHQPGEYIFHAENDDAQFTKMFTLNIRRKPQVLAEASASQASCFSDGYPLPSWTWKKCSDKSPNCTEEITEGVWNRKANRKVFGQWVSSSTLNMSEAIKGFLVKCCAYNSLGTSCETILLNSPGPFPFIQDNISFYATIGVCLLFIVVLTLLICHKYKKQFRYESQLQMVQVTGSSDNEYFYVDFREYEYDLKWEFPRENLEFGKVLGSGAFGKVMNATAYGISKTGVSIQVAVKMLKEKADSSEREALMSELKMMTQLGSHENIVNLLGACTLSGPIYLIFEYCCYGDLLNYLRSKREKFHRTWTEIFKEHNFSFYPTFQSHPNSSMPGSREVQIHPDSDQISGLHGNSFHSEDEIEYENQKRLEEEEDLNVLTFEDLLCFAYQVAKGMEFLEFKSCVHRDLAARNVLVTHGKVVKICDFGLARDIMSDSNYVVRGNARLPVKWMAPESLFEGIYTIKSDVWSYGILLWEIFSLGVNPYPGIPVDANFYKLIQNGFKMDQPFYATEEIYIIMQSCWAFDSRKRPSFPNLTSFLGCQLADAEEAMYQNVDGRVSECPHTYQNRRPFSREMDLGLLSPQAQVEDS
Experimental: as §1

[3] = molecular target: ABL1 (Homo sapiens (Human), UniProt P00519); settings: 100 nM; for inhibition at 0.1 µM: read-out: inhibitory rate on ABL1
Sequence of ABL1 (P00519 whole entry): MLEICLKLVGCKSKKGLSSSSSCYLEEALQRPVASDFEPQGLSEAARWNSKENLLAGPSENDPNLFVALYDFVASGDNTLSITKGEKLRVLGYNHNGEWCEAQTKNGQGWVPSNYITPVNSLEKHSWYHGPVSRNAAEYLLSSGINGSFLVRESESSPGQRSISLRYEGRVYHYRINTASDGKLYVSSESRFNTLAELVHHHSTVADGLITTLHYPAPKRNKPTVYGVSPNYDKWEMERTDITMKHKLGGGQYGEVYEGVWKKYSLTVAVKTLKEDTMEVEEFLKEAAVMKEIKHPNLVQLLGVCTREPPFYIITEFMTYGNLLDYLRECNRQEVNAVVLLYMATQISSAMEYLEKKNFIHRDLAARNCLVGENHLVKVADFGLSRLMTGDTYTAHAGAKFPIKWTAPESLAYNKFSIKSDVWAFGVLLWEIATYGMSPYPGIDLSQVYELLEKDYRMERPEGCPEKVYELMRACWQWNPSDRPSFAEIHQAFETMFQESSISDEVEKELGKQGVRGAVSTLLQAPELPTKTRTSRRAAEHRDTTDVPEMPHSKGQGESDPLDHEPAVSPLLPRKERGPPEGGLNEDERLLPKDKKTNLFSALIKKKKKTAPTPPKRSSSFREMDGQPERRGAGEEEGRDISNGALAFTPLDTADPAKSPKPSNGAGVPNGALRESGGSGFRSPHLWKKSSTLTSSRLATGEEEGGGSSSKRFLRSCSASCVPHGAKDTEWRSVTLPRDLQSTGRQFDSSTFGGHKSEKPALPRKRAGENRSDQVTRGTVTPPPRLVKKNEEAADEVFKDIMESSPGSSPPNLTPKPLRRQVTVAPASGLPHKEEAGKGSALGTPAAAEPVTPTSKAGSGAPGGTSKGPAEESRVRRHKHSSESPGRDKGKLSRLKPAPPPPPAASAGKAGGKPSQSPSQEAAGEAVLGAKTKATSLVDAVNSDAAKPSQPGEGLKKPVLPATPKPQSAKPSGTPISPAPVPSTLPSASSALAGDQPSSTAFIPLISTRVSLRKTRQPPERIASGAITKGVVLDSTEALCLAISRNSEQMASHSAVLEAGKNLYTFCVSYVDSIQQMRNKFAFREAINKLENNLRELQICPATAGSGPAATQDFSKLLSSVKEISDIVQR
Experimental: (§3) The method adopted in the test was Caliper Mobility Shift Assay, which was a detection platform based on the mobility detection technology of microfluidic chip technology. […] Collected data was tested on Caliper to yield that inhibition ratio to kinase activity=(max−conversion)/(max−min)×100. “max” was DMSO control without adding compound, and “min” was low control. When IC50 was determined, each sample was provided with 10 dilutions, each with 2 multiple holes, and repeated for 3 times.

[4] = molecular target: FGFR2 (Homo sapiens (Human), UniProt P21802)
Experimental: as §1, §2

[5] = molecular target: JAK1 (Homo sapiens (Human), UniProt P23458)
Experimental: as §1, §2

[6] = molecular target: ALK (Homo sapiens (Human), UniProt Q9UM73)
Experimental: as §1

[7] = molecular target: IKK β (Homo sapiens (Human), UniProt O14920)
Sequence of IKK β (O14920 whole entry, species assumed): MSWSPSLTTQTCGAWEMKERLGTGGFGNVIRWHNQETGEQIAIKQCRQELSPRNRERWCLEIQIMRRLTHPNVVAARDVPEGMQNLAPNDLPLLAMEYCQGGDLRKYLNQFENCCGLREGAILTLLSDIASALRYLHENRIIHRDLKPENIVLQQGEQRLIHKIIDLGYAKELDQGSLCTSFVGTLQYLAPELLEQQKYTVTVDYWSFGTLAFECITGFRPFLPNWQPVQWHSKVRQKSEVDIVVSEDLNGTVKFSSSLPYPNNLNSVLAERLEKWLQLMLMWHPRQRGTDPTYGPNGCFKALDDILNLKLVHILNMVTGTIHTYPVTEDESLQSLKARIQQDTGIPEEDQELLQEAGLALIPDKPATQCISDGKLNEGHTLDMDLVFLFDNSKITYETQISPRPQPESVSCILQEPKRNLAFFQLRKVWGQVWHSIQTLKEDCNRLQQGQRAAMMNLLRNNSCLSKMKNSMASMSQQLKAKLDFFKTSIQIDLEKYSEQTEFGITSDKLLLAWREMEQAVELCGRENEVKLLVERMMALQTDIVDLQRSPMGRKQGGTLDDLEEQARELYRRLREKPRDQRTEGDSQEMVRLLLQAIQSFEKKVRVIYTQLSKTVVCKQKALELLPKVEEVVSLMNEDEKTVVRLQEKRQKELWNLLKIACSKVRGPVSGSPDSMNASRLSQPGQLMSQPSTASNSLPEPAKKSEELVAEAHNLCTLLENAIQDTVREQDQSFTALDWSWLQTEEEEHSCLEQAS
Experimental: as §1

[8] = molecular target: PDGFRα (Homo sapiens (Human), UniProt P16234)
Sequence of PDGFRα (P16234 24-1089): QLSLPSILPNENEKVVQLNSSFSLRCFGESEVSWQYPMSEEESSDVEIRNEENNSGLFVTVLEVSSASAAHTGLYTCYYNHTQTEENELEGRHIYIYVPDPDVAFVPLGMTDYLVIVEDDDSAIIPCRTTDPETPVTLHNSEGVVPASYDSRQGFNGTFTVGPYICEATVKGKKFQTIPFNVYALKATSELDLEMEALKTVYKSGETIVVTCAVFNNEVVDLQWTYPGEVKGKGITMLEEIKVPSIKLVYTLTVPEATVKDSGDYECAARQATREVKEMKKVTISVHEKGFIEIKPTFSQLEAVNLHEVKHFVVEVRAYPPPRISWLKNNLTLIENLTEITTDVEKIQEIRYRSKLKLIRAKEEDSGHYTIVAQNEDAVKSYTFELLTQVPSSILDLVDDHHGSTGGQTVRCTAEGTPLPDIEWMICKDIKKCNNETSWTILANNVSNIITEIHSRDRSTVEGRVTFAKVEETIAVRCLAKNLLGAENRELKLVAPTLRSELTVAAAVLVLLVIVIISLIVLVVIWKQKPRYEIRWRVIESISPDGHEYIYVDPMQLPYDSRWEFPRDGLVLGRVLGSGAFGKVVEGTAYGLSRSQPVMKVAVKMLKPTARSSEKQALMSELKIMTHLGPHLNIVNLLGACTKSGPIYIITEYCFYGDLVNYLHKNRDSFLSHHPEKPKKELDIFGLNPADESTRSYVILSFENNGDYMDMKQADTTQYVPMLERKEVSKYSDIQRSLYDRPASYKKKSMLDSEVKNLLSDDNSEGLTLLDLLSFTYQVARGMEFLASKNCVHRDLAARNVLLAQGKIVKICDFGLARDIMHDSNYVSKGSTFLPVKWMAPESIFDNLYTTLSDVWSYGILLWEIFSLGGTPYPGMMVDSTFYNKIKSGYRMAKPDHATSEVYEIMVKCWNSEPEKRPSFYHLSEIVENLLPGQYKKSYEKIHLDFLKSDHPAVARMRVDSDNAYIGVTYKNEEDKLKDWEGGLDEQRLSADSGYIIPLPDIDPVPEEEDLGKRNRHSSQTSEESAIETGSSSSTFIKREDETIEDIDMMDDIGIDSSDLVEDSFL
Experimental: as §3

SMILES | inhibition at 0.1 µM [1] [%] | inhibition at 0.1 µM [2] [%] | inhibition at 0.1 µM [3] [%] | inhibitory rate on PDGFR-β [1] [%] | inhibitory rate on FLT3 [2] [%] | inhibitory rate on ABL1 [3] [%] | further results
CN1CCN(c2ccc(Nc3ncc(Cl)c(Nc4ccc5cn[nH]c5c4)n3)cc2)CC1 [Compound 3b, 5-chloro-N^4-(1H-indazol-6-yl)-N^2-(4-(4-methylpiperazine-1-yl)phenyl)pyrimidine-2,4-diamine] | 95.8 | 90.2 | 95.1 | – | – | – | –
Cc1cc(Nc2ccc3cn[nH]c3c2)nc(Nc2ccc(N3CCN(C)CC3)cc2)n1 [Compound 3h] | – | – | – | 21.2 | 13.8 | 5.9 | –
CN1CCN(c2ccc(Nc3ncc(C(F)(F)F)c(Nc4ccc5cn[nH]c5c4)n3)cc2)CC1 [Compound 3c, N^4-(1H-indazol-6-yl)-N^2-(4-(4-methylpiperazine-1-yl)phenyl)-5-(trifluoromethyl)pyrimidine-2,4-diamine] | 81 | 78.6 | 84.2 | – | – | – | –
Cc1cnc(Nc2ccc(N3CCOCC3)cc2)nc1Nc1ccc2cn[nH]c2c1 [Compound 6a, N^4-(1H-indazol-6-yl)-5-methyl-N^2-(4-morphinophenyl) pyrimidine-2,4-diamine] | – | – | – | 93.8 | 87.2 | 98.2 | IC50 [1]: 4.2 nM
CN1CCN(c2ccc(Nc3ncc(F)c(Nc4ccc5cn[nH]c5c4)n3)cc2)CC1 [Compound 3a, 5-fluoro-N^4-(1H-indazol-6-yl)-N^2-(4-(4-methylpiperazine-1-yl)phenyl)pyrimidine-2,4-diamine] | 94.4 | 87.5 | 90.4 | – | – | – | –
CCOC(=O)c1cnc(Nc2ccc(N3CCN(C)CC3)cc2)nc1Nc1ccc2cn[nH]c2c1 [Compound 3f, Ethyl-4-((1H-indazol-6-yl)amino)-2-((4-(4-methylpiperazine-1-yl)phenyl)amino)pyrimidine-5-carboxylate] | 3.5 | 34.8 | 4.3 | – | – | – | –
Cc1cc2c(Nc3ccc4cn[nH]c4c3)nc(Nc3ccc(N4CCN(C)CC4)cc3)nc2s1 [Compound 3i] | – | – | – | 30.7 | 42.6 | 23.6 | inhibitory rate on PDGFR-α ([8]; 100 nM): 6.6%
Cc1cnc(Nc2ccc(N3CCN(C)CC3)cc2)nc1Nc1ccc2nccnc2c1 [Compound 5e, 5-methyl-N^2-(4-(4-methylpiperazine-1-yl)phenyl)-N^4-(benzopyrazine-6-yl)-pyrimidine-2,4-diamine] | 74.1 | – | – | – | 69.8 | 65.5 | –
Cc1cnc(Nc2ccc(N3CCN(C)CC3)cc2)nc1Nc1ccc2[nH]ncc2c1 [Compound 5d] | – | – | – | 84.1 | 80.4 | 80.9 | –
Cc1cnc(Nc2ccc(N3CCN(C)CC3)cc2)nc1Nc1ccc2nccnc2c1 [Compound 5f, 5-methyl-N^2-(4-(4-methylpiperazine-1-yl)phenyl)-N^4-(quinoxaline-7-yl)-pyrimidine-2,4-diamine] | – | – | – | 91.0 | 90.5 | 90.2 | –
Cc1cnc(Nc2ccc(N3CCN(C)CC3)cc2)nc1Nc1cccc2[nH]ccc12 [Compound 5b] | – | – | – | 90.3 | 60.9 | 78.8 | –
Cc1cnc(Nc2ccc(N3CCN(C)CC3)cc2)nc1Nc1ccc2cn[nH]c2c1 [Compound 3d, N^4-(1H-indazol-6-yl)-5-methyl-N^2-(4-(4-methylpiperazine-1-yl)phenyl)pyrimidine-2,4-diamine] | 99.6 | 90.5 | 95.2 | – | – | – | –
Cc1cnc(Nc2ccc(N3CCN(C)CC3)cc2)nc1Nc1ccc2[nH]ccc2c1 [Compound 5a] | – | – | – | 78.6 | 60.3 | 58.9 | inhibitory rate on PDGFR-α ([8]; 100 nM): 57.3%
CN1CCN(c2ccc(Nc3nc(Nc4ccc5cn[nH]c5c4)cc(C(F)(F)F)n3)cc2)CC1 [Compound 3g, N^4-(1H-indazol-6-yl)-N^2-(4-(4-methylpiperazine-1-yl)phenyl)-6-(trifluoromethyl)pyrimidine-2,4-diamine] | 7.2 | 14.6 | 6.9 | – | – | – | –
Cc1cnc(Nc2ccc(N3CCN(C)CC3)cc2)nc1Nc1ccc2c(cnn2C)c1 [Compound 5c, 5-methyl-N^4-(1-methyl-1H-indazol-5-yl)-N^2-(4-(4-methylpiperazine-1-yl)phenyl)pyrimidine-2,4-diamine] | 79.2 | 65.4 | 58.9 | – | – | – | –
COc1cnc(Nc2ccc(N3CCN(C)CC3)cc2)nc1Nc1ccc2cn[nH]c2c1 [Compound 3e, N^4-(1H-indazol-6-yl)-5-methoxy-N^2-(4-(4-methylpiperazine-1-yl)phenyl)pyrimidine-2,4-diamine] | 55 | 51.2 | 54.3 | – | – | – | –

Second part, led by results:

inhibition at 0.1 µM [1] [%] | inhibition at 0.1 µM [2] [%] | inhibition at 0.1 µM [3] [%] | inhibitory rate on PDGFR-β [1] [%] | inhibitory rate on FLT3 [2] [%] | inhibitory rate on ABL1 [3] [%] | SMILES | further results
98 | 93.4 | 85.2 | – | – | – | Cc1cnc(Nc2ccc(N3CCN(C)CC3)cc2)nc1Nc1ccc2c(C)n[nH]c2c1 [Compound 5i, 5-methyl-N^4-(3-methyl-1H-indazol-6-yl)-N^2-(4-(4-methylpiperazine-1-yl)phenyl)pyrimidine-2,4-diamine] | IC50 [1]: 7.9 nM
78.4 | 85.6 | 81 | – | – | – | Cc1cnc(Nc2ccc(C(=O)N3CCN(C)CC3)cc2)nc1Nc1ccc2cn[nH]c2c1 [Compound 6m, (4-((4-((1H-indazol-6-yl)amino)-5-methylpyrimidine-2-yl)amino)phenyl) (4-methylpiperazine-1-yl)methanone] | –
76.4 | 58.4 | 47.5 | – | – | – | COc1cc(N2CCC(N3CCN(C)CC3)CC2)ccc1Nc1ncc(C)c(Nc2ccc3cn[nH]c3c2)n1 [Compound 6k, N^4-(1H-indazol-6-yl)-N^2-(2-methoxy-4-(4-(4-methylpiperazine-1-yl)piperidine-1-yl)phenyl)-5-methylpyrimidine-2,4-diamine] | –
– | – | – | 93.8 | 87.6 | 89.6 | Cc1cnc(Nc2ccc(N3CCN(C)CC3)cc2)nc1Nc1ccc2cn[nH]c2c1 [Compound 6g, N^4-(1H-indazol-6-yl)-5-methyl-N^2-(4-(4-methylpiperazine-1-yl)phenyl)pyrimidine-2,4-diamine] | IC50 [4]: 81 nM; IC50 [5]: 13 nM; inhibitory activity on PDGFRβ (in words) [1]: significant inhibitory activities; IC50 [1]: 8.8 nM; IC50 [6]: 26 nM; IC50 [7]: 595 nM
90.4 | 85.7 | 89.2 | – | – | – | Cc1cnc(Nc2ccc(N3CCN(C)CC3)cc2)nc1Nc1ccc2c(c1)CCCC2 [Compound 5g, 5-methyl-N^2-(4-(4-methylpiperazine-1-yl)phenyl)-N^4-(5,6,7,8-tetrahydronaphthalene-2-yl)-pyrimidine-2,4-diamine] | –
– | – | – | 71.1 | 74.3 | 71.6 | Cc1cnc(Nc2ccc(N3CCN(C)CC3)cc2)nc1Nc1ccc2cn(CCNC(=O)OC(C)(C)C)nc2c1 [Compound 5j, Tert-butyl (2-(6-((5-methyl-2-((4-(4-methylpiperazine-1-yl)phenyl)amino)-pyrimidine-4-yl)amino)-2H-indazol-2-yl)ethyl) carbamate] | –
88.9 | 87.1 | 80.2 | – | – | – | Cc1cnc(Nc2ccc(N3CCN(C)CC3)cc2)nc1Nc1ccc2c(c1)CCC2 [Compound 5h, N^4-(2,3-dihydro-1H-indene-5-yl)-5-methyl-N^2-(4-(4-methylpiperazine-1-yl)phenyl)pyrimidine-2,4-diamine] | –
68.7 | 87.3 | 91.2 | – | – | – | Cc1cnc(Nc2ccc(N3CCNCC3)cc2)nc1Nc1ccc2cn[nH]c2c1 [Compound 6b, N^4-(1H-indazol-6-yl)-5-methyl-N^2-(4-(piperazine-1-yl)phenyl) py rimidine-2,4-diamine] | IC50 [1]: 68.7 nM
96.4 | 88.7 | 90.4 | – | – | – | Cc1cnc(Nc2ccc(N3CCN(C)CC3)cc2)nc1Nc1ccc2cnn(C)c2c1 [Compound 5k, 5-methyl-N^4-(1-methyl-1H-indazol-6-yl)-N^2-(4-(4-methylpiperazine-1-yl)phenyl)pyrimidine-2,4-diamine] | IC50 [1]: 7.3 nM; inhibition at 0.1 µM ([8]; 100 nM, read-out: inhibitory rate on PDGFR-α): 91.1%; IC50 ([8]; read-out: IC50 PDGFR-α): 19 nM
